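A five-concentration, 48-hour dose response in 96-well plates underlies each endpoint, interpolated linearly between surrounding concentrations. GI50: concentration for 50% inhibition of growth.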 Active and inactive are the calls of the source. Cut-off read from the data, not from the text of the source: active = GI50 up to about 1.1 µM and inactive = higher.
Experiments:
Test in all cases: NCI-60 cell line screen, 48 h
[1] = test system: PC-3
[2] = test system: EKVX
[3] = test system: TK-10
[4] = test system: HOP-92
[5] = test system: RXF 393
[6] = test system: UACC-62
[7] = test system: SR
[8] = test system: T47D
[9] = test system: MDA-MB-435
[10] = test system: SK-MEL-5
[11] = test system: HOP-62
[12] = test system: ACHN
[13] = test system: SK-MEL-2
[14] = test system: BT-549
[15] = test system: SF-268
[16] = test system: Hs-578T
[17] = test system: OVCAR-8
[18] = test system: SNB-19
[19] = test system: A549
[20] = test system: SN12C

Measured: GI50

NCC(=O)Nc1ccc(Cl)cc1C(=O)c1ccc[nH]1
inactive: [1] 25.9 µM | [2] > 100 µM | [3] > 94.6 µM | [4] 15.4 µM | [5] > 82.2 µM | [6] > 68.5 µM | [7] 8.99 µM | [8] 54.1 µM | [9] 45.2 µM | [10] 49 µM | [11] > 94.2 µM | [12] > 74 µM | [13] 61.1 µM | [14] 70.3 µM | [15] 49 µM | [16] > 67.5 µM | [17] > 56.8 µM | [18] > 100 µM | [19] 63.1 µM | [20] > 36.3 µM

CC(=O)OCc1ccc(O)c(C=O)c1
inactive: [1] 88.9 µM | [2] 28.4 µM | [3] > 100 µM | [4] 43.3 µM | [5] > 100 µM | [6] 71.3 µM | [7] 60.3 µM | [8] 51.3 µM | [9] > 100 µM | [10] > 100 µM | [11] > 100 µM | [12] > 100 µM | [13] > 100 µM | [14] > 100 µM | [15] 64.9 µM | [16] > 100 µM | [17] 96.2 µM | [18] 92.3 µM | [19] > 100 µM | [20] 84.3 µM

Cc1sc2[nH]c(=O)oc(=O)c2c1C
inactive: [1] > 100 µM | [2] > 100 µM | [3] > 100 µM | [4] > 100 µM | [5] > 100 µM | [6] 52.1 µM | [7] 37.8 µM | [8] > 86.5 µM | [9] 39.9 µM | [10] 48.3 µM | [11] 72.8 µM | [12] 97.7 µM | [13] 37.7 µM | [14] 22.9 µM | [15] 53.8 µM | [16] 28.6 µM | [17] 65.8 µM | [18] > 100 µM | [19] > 83.8 µM | [20] > 76.2 µM

NC(=O)c1nnn(Cc2cc(Cl)c(C(=O)c3ccc(Cl)cc3)c(Cl)c2)c1N [CARBOXYAMIDOTRIAZOLE]
inactive: [1] 19.5 µM | [2] 16.8 µM | [3] 20.6 µM | [4] 32 µM | [5] 23.7 µM | [6] 12.9 µM | [7] 6.75 µM | [8] 17.7 µM | [9] 11 µM | [10] 5.96 µM | [11] 25.7 µM | [12] 9.46 µM | [13] 11.1 µM | [14] 21.6 µM | [15] 13 µM | [16] 39 µM | [17] 24.1 µM | [18] 24.4 µM | [19] 12.7 µM | [20] 29.2 µM
